Measured values published in patent US10780090B2, “Heteroaryl compounds useful as inhibitors of SUMO activating enzyme” (Millennium Pharmaceuticals, Inc., priority 2014, dated 2020).
Where a name gives a salt, the structure may show the parent alone.

Molecular target: recombinant human SAE enzyme (Homo sapiens (Human), UniProt Q9UBT2)
Test: SAE HTRF enzyme assay
Assay type: biochemical
Details: for inhibition at 0.111 µM: read-out: Percent Inhibition
Procedure, shortened: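 First, recombinant human SAE (0.11 nM) transfers Sumo-Flag onto Ubc9-GST using 0.5 μM ATP for 105 min at 24° C. Next, EDTA-containing detection buffer with labelled anti-Flag and anti-GST antibodies is added for 2 h. Finally, FRET is quantified and percent inhibition or IC50 derived.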

[1] = SAE inhibition at compound concentration 0.111 μM
[2] = SAE inhibition, class symbols, legend in nM

Sequence of recombinant human SAE enzyme (Q9UBT2 whole entry): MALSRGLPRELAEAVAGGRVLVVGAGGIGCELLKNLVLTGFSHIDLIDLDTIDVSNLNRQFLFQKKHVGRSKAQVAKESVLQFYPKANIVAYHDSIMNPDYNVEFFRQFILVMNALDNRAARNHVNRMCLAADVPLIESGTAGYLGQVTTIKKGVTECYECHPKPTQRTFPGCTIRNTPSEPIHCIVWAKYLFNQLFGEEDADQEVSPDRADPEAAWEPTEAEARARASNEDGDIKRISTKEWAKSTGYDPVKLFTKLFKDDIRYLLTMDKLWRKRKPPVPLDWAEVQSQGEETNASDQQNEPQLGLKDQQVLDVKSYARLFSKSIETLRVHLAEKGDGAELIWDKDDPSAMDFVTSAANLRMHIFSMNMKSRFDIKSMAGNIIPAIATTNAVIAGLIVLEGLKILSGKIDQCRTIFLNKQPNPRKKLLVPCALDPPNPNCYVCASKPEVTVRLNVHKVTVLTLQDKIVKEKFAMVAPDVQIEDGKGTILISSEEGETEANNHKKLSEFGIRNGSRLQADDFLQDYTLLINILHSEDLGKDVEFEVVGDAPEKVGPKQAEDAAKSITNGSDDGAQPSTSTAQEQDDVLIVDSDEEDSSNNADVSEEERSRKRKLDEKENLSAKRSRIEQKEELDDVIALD
Sequence of recombinant human SAE enzyme (Q9UBE0 whole entry partner): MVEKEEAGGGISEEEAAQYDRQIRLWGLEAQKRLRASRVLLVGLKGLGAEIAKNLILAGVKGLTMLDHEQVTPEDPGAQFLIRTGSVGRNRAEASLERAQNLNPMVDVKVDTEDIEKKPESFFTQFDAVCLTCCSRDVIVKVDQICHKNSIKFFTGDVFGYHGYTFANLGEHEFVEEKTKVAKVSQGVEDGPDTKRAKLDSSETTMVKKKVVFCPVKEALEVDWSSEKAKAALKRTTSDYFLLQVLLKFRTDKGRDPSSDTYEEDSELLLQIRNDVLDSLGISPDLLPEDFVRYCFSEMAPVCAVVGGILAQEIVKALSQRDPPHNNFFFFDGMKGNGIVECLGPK

| Molecule | inhibition at 0.111 µM (Concentration 0.111 μM) | IC50 (class symbols A/B/C) | Percent Inhibition (Concentration 0.111 μM) | Percent Inhibition [1] | IC50 [2] |
| --- | --- | --- | --- | --- | --- |
| NS(=O)(=O)OC[C@H]1C[C@@H](Nc2ncncc2C(=O)c2cc(COc3cccc(Cl)c3)cs2)C[C@@H]1O [I-120, [(1R,2S,4R)-4-{[5-({4-[(3-chlorophenoxy)methyl]-2-thienyl}carbonyl)pyrimidin-4-yl]amino}-2-hydroxycyclopentyl]methyl sulfamate] | 97% | < 10 nM |  |  |  |
| CN(C)C(c1cccc(Cl)c1)c1csc(C(=O)c2cncnc2NC2CC(O)C(COS(N)(=O)=O)C2)c1 (mixture of isomers) [I-153, [(1R,2S,4R)-4-{[5-({4-[(R)-(3-Chlorophenyl)(dimethylamino)methyl]-2-thienyl}carbonyl)pyrimidin-4-yl]amino}-2-hydroxycyclopentyl]methyl sulfamate and [(1R,2S,4R)-4-{[5-({4-[(S)-(3-chlorophenyl)(dimethylamino)methyl]-2-thienyl}carbonyl)pyrimidin-4-yl]amino}-2-hydroxycyclopentyl]methyl sulfamate] |  | 10 to 100 nM | 86 |  |  |
| Cc1sc(C(=O)c2cncnc2N[C@@H]2C[C@H](COS(N)(=O)=O)[C@@H](OC(=O)[C@H](C)N)C2)cc1[C@@H]1OCCc2ccc(Cl)cc21 [I-362, [(1S,2R,4R)-4-[5-[4-[(1R)-7-chloroisochroman-1-yl]-5-methyl-thiophene-2-carbonyl]pyrimidin-4-yl]amino]-2-(sulfamoyloxymethyl)cyclopentyl] (2S)-2-aminopropanoate; hydrochloride] |  |  |  | 91% | 10 to 100 nM |
| Cc1sc(C(=O)c2cncnc2N[C@@H]2C[C@H](COS(N)(=O)=O)[C@@H](O)C2)cc1[C@@H]1OCCc2ccc(C3CC3)cc21 (single isomer, unassigned) [I-277a, [(1R,2S,4R)-4-{[5-({4-[(1R)-7-cyclopropyl-3,4-dihydro-1H-isochromen-1-yl]-5-methyl-2-thienyl}carbonyl)pyrimidin-4-yl]amino}-2-hydroxycyclopentyl]methyl sulfamate or [(1R,2S,4R)-4-{[5-({4-[(1S)-7-cyclopropyl-3,4-dihydro-1H-isochromen-1-yl]-5-methyl-2-thienyl}carbonyl)pyrimidin-4-yl]amino}-2-hydroxycyclopentyl]methyl sulfamate] |  | < 10 nM | 100 |  |  |
| NS(=O)(=O)OC[C@H]1C[C@@H](Nc2ncncc2C(=O)c2cc([C@@H]3OCCc4cccnc43)c(Cl)s2)C[C@@H]1O (single isomer, unassigned) [I-266a, [(1R,2S,4R)-4-{[5-({5-chloro-4-[(8S)-5,8-dihydro-6H-pyrano[3,4-b]pyridin-8-yl]-2-thienyl}carbonyl)pyrimidin-4-yl]amino}-2-hydroxycyclopentyl]methyl sulfamate or [(1R,2S,4R)-4-{[5-({5-chloro-4-[(8R)-5,8-dihydro-6H-pyrano[3,4-b]pyridin-8-yl]-2-thienyl}carbonyl)pyrimidin-4-yl]amino}-2-hydroxycyclopentyl]methyl sulfamate] |  | 100 to 1000 nM | 41 |  |  |
| COCc1sc(C(=O)c2cncnc2N[C@@H]2C[C@H](COS(N)(=O)=O)[C@@H](O)C2)cc1C(O)c1cccc(Cl)c1 (single isomer, unassigned) [I-7a, [(1R,2S,4R)-4-{[5-({4-[(R)-(3-chlorophenyl)(hydroxy)methyl]-5-(methoxymethyl)-2-thienyl}carbonyl)pyrimidin-4-yl]amino}-2-hydroxycyclopentyl]methyl sulfamate or [(1R,2S,4R)-4-{[5-({4-[(S)-(3-chlorophenyl)(hydroxy)methyl]-5-(methoxymethyl)-2-thienyl}carbonyl)pyrimidin-4-yl]amino}-2-hydroxycyclopentyl]methyl sulfamate] |  | < 10 nM | 96 |  |  |
| NS(=O)(=O)OC[C@H]1C[C@@H](Nc2ncncc2C(=O)c2cc([C@@H]3OCCc4ccc(F)cc43)cs2)C[C@@H]1O (single isomer, unassigned) [I-267b, [(1R,2S,4R)-4-{[5-({4-[(1R)-7-fluoro-3,4-dihydro-1H-isochromen-1-yl]-2-thienyl}carbonyl)pyrimidin-4-yl]amino}-2-hydroxycyclopentyl]methyl sulfamate or [(1R,2S,4R)-4-{[5-({4-[(1S)-7-fluoro-3,4-dihydro-1H-isochromen-1-yl]-2-thienyl}carbonyl)pyrimidin-4-yl]amino}-2-hydroxycyclopentyl]methyl sulfamate] |  | < 10 nM | 100 |  |  |
| NS(=O)(=O)OC[C@H]1C[C@@H](Nc2ncncc2C(=O)c2cc(C3SCCc4ccc(Cl)cc43)cs2)[C@H](O)[C@@H]1O (single isomer, unassigned) [I-278b, [(1R,2R,3S,4R)-4-{[5-({4-[(1R)-7-chloro-3,4-dihydro-1H-isothiochromen-1-yl]-2-thienyl}carbonyl)pyrimidin-4-yl]amino}-2,3-dihydroxycyclopentyl]methyl sulfamate or [(1R,2R,3S,4R)-4-{[5-({4-[(1S)-7-chloro-3,4-dihydro-1H-isothiochromen-1-yl]-2-thienyl}carbonyl)pyrimidin-4-yl]amino}-2,3-dihydroxycyclopentyl]methyl sulfamate] |  | < 10 nM | 99 |  |  |
| Cc1nc2c(s1)CCO[C@H]2c1cc(C(=O)c2cncnc2N[C@@H]2C[C@H](COS(N)(=O)=O)[C@@H](O)C2)sc1C (mixture of isomers) [I-287, [(1R,2S,4R)-2-hydroxy-4-{[5-({5-methyl-4-[(4S)-2-methyl-6,7-dihydro-4H-pyrano[3,4-d][1,3]thiazol-4-yl]-2-thienyl}carbonyl)pyrimidin-4-yl]amino}cyclopentyl]methyl sulfamate and [(1R,2S,4R)-2-hydroxy-4-{[5-({5-methyl-4-[(4R)-2-methyl-6,7-dihydro-4H-pyrano[3,4-d][1,3]thiazol-4-yl]-2-thienyl}carbonyl)pyrimidin-4-yl]amino}cyclopentyl]methyl sulfamate] |  |  |  | 97% | < 10 nM |
| Cc1sc(C(=O)c2cncnc2N[C@@H]2C[C@H](COS(N)(=O)=O)[C@@H](O)C2)cc1[C@@H]1OCCc2ccsc21 (single isomer, unassigned) [I-269a, [(1R,2S,4R)-4-{[5-({4-[(7S)-4,7-dihydro-5H-thieno[2,3-c]pyran-7-yl]-5-methyl-2-thienyl}carbonyl)pyrimidin-4-yl]amino}-2-hydroxycyclopentyl]methyl sulfamate or [(1R,2S,4R)-4-{[5-({4-[(7R)-4,7-dihydro-5H-thieno[2,3-c]pyran-7-yl]-5-methyl-2-thienyl}carbonyl)pyrimidin-4-yl]amino}-2-hydroxycyclopentyl]methyl sulfamate] |  | < 10 nM | 101 |  |  |
| COCc1coc(C(=O)c2cncnc2N[C@@H]2C[C@H](COS(N)(=O)=O)[C@@H](O)C2)c1 [I-223, [(1R,2S,4R)-2-Hydroxy-4-({5-[4-(methoxymethyl)-2-furoyl]pyrimidin-4-yl}amino)cyclopentyl]methyl sulfamate] | 28% | 100 to 1000 nM |  |  |  |
| [(1R,2S,4R)-4-{[5-({5-chloro-4-[(1R)-1-hydroxy-2-phenylethyl]-2-thienyl}carbonyl)pyrimidin-4-yl]amino}-2-hydroxycyclopentyl]methyl sulfamate and [(1R,2S,4R)-4-{[5-({5-chloro-4-[(1S)-1-hydroxy-2-phenylethyl]-2-thienyl}carbonyl)pyrimidin-4-yl]amino}-2-hydroxycyclopentyl]methyl sulfamate [I-136] |  | < 10 nM | 96 |  |  |
| NS(=O)(=O)OC[C@H]1C[C@@H](Nc2ncncc2C(=O)c2cc([C@@]3(c4cccc(Cl)c4)CCCN3)cs2)C[C@@H]1O (mixture of isomers) [I-38, [(1R,2S,4R)-4-{[5-({4-[(2S)-2-(3-chlorophenyl)pyrrolidin-2-yl]-2-thienyl}carbonyl)pyrimidin-4-yl]amino}-2-hydroxycyclopentyl]methyl sulfamate and [(1R,2S,4R)-4-{[5-({4-[(2R)-2-(3-chlorophenyl)pyrrolidin-2-yl]-2-thienyl}carbonyl)pyrimidin-4-yl]amino}-2-hydroxycyclopentyl]methyl sulfamate] |  | < 10 nM | 101 |  |  |
| CO[C@H](c1cccc(Cl)c1)c1cc(C(=O)c2cncnc2N[C@@H]2C[C@H](COS(N)(=O)=O)[C@@H](O)C2)sc1Cl (single isomer, unassigned) [I-90a, [(1R,2S,4R)-4-{[5-({5-chloro-4-[(R)-(3-chlorophenyl)(methoxy)methyl]-2-thienyl}carbonyl)pyrimidin-4-yl]amino}-2-hydroxycyclopentyl]methyl sulfamate or [(1R,2S,4R)-4-{[5-({5-chloro-4-[(S)-(3-chlorophenyl)(methoxy)methyl]-2-thienyl}carbonyl)pyrimidin-4-yl]amino}-2-hydroxycyclopentyl]methyl sulfamate] |  | < 10 nM | 98 |  |  |
| NS(=O)(=O)OC[C@H]1C[C@@H](Nc2ncncc2C(=O)c2cc([C@@H]3OCCc4cc(F)c(F)cc43)cs2)C[C@@H]1O (single isomer, unassigned) [I-273, [(1R,2S,4R)-4-{[5-({4-[(1R)-6,7-Difluoro-3,4-dihydro-1H-isochromen-1-yl]-2-thienyl}carbonyl)pyrimidin-4-yl]amino}-2-hydroxycyclopentyl]methyl sulfamate or [(1R,2S,4R)-4-{[5-({4-[(1S)-6,7-Difluoro-3,4-dihydro-1H-isochromen-1-yl]-2-thienyl}carbonyl)pyrimidin-4-yl]amino}-2-hydroxycyclopentyl]methyl sulfamate] |  | < 10 nM | 99 |  |  |
| NS(=O)(=O)OC[C@H]1C[C@@H](Nc2ncncc2C(=O)c2cc(CC3=CCCCC3)cs2)C[C@@H]1O [I-140, {(1R,2S,4R)-4-[(5-{[4-(Cyclohex-1-en-1-ylmethyl)-2-thienyl]carbonyl}pyrimidin-4-yl)amino]-2-hydroxycyclopentyl}methyl sulfamate] | 93% | < 10 nM |  |  |  |
